Data published in patent publication US20240381822A1, “PLANT PART QUALITY” (Valent BioSciences LLC, priority 2023, published 2024).

Tests used:
Type in all cases: in vivo
[1] = test system: Summer Flame 34 variety Peaches; assay: Flesh browning of waxed peaches after cold storage (Example 2); settings: for Fold Change from Control (Flesh Browning Average Score): 1.2 mM single active; for Flesh Browning Average Score: 1.2 mM single active in Prima Fresh 55EU wax, 5 degrees Celsius 25 days, 3 day room temperature, 6-point scale
Protocol: Flesh browning was determined using a 6-point scale developed by Crisosto G. M. 2015 wherein a score of 1=no browning, 2=very slight browning in the pit cavity, 3=slight browning in the pit cavity and surrounding tissue, 4=moderate browning on less than 50% of the flesh, 5=severe browning on 50% to 75% of the flesh and 6=extreme browning covering most of the flesh. A flesh browning score of more than 3 was determined as a “flesh browning incident” and a score of less than 3 was determined as “healthy fruit” for efficacy purposes.
(§1) Summer Flame 34 variety Peaches were harvested and maintained at room temperature until treatment. Peaches were divided into 4 equal sets. Each treatment type contained 32 peaches and was repeated 3 times for a total of 96 peaches per treatment. For treatment, water, (S)-abscisic acid (“S-ABA”), methyl jasmonate or a mixture of S-ABA and methyl jasmonate were mixed in Prima Fresh 55EU wax and applied in a semicommercial mini packing line to simulate commercial packing conditions. Active ingredients were mixed into the wax at the following concentrations: 1) wax only; 2) 1.2 mM S-ABA; 3) 1.2 mM methyl jasmonate; 4) 1.2 mM S-ABA and 1.2 mM methyl jasmonate. All peaches were immediately stored at 5 degrees Celsius for 25 days. Following cold storage all peaches were placed at room temperature for 3 day and then evaluated for flesh browning as described in Example 1, above and also for flesh mealiness.
(§2) Determination of unexpected results was calculated using the method described in Example 1, above.

[2] = test system: Summer Flame 34 variety Peaches; assay: Flesh mealiness of waxed peaches after cold storage (Example 2); settings: for Fold Change from Control (Flesh Mealiness Average Score): 1.2 mM single active; for Flesh Mealiness Average Score: 1.2 mM single active in Prima Fresh 55EU wax, 5 degrees Celsius 25 days, 3 day room temperature, 3-point scale
Excerpt: as §1
Flesh mealiness was determined using a 3-point scale developed by Crisosto G. M. 2015 wherein a score of 1=juicy fruit, 2=moderately mealy fruit (small amount of juice released upon squeezing) and 3=severely mealy fruit (almost no juice released upon squeezing). A flesh mealiness score of 2 or more was determined as a “flesh mealiness incident” and a score of 1 was determined as “healthy fruit” for efficacy purposes.
as §2

[3] = test system: Cucumbers; assay: Electrolyte leakage of cucumbers after cold storage (Example 3); settings: for % Electrolyte Leakage: 2-minute dip, 5 degrees Celsius 11.5 days, then room temperature
Excerpt: Cucumbers were harvested and waxed and maintained at room temperature until treatment. Cucumbers were divided into 9 equal sets. Each treatment type contained 11-13 cucumbers peaches and was repeated 3 times for a total of 33-39 peaches per treatment. For treatment, water, (S)-abscisic acid (“S-ABA”), methyl jasmonate or a mixture of S-ABA and methyl jasmonate were applied to cucumber after harvest via a 2-minute dip at the following concentrations: 1) water only; 2) 0.3 millimolar (“mM”) S-ABA; 3) 3 mM S-ABA; 4) 0.3 mM methyl jasmonate; 5) 3 mM methyl jasmonate; 6) 0.3 mM S-ABA and 0.3 mM methyl jasmonate; 7) 0.3 mM S-ABA and 3 mM methyl jasmonate; 8) 3 mM S-ABA and 0.3 mM methyl jasmonate or 9) 3 mM S-ABA and 3 mM methyl jasmonate. Each treatment includes 0.025% Latron B-1956® (available from J. R. Simplot Company) as an adjuvant. All cucumbers were subsequently dried for 30 minutes and then stored at 5 degrees Celsius for 11.5 days. Following cold storage all cucumbers were placed at room temperature for 4 days and then evaluated for electrolyte leakage and decay on each of days 1, 2,3 and 4. For electrolyte leakage cucumbers were sliced and a 1-centimeter core sample (i.e. a disc) was taken from each slice. 10 discs were placed in each 50-milliliter centrifuge tube containing 30 milliliter of deionized water and shaken for 25 minutes. Electroconductivity was measured at time zero as soon as the treatments were processed (CO). Electroconductivity was measured again after the discs were shaken in the centrifuge tubes (C1). Finally, electroconductivity was measured after boiling the cucumber sample for 20 minutes and then cooled rapidly (C2). % electrolyte leakage was calculated by the following formula (C1−C0)/C2. Determination of unexpected results was calculated using the method described in Example 1. above.

[4] = test system: Flamin' Fury® variety Peaches; assay: Flesh browning of peaches after cold storage (Example 1); settings: for % Healthy Fruit: 1-minute dip, 5 degrees Celsius 4 weeks, 1 day room temperature, flesh browning score less than 3
Protocol: ' Fury® variety Peaches were harvested and maintained at room temperature until treatment. Peaches were divided into 9 equal sets. Each treatment type contained 15 peaches and was repeated 3 times for a total of 45 peaches per treatment. For treatment, water, (S)-abscisic acid (“S-ABA”), methyl jasmonate or a mixture of S-ABA and methyl jasmonate were applied to peaches after harvest via a 1-minute dip at the following concentrations: 1) water only; 2) 0.33 millimolar (“mM”) S-ABA; 3) 3.3 mM S-ABA; 4) 0.33 mM methyl jasmonate; 5) 3.3 mM methyl jasmonate; 6) 0.33 mM S-ABA and 0.33 mM methyl jasmonate; 7) 0.3 mM S-ABA and 3.3 mM methyl jasmonate; 8) 3.3 mM S-ABA and 0.33 mM methyl jasmonate or 9) 3.3 mM S-ABA and 3.3 mM methyl jasmonate. Each treatment includes 0.025% Latron B-1956® (available from J. R. Simplot Company) as an adjuvant. All peaches were subsequently dried for 30 minutes and then stored at 5 degrees Celsius for 4 weeks. Following cold storage all peaches were placed at room temperature for 1 day and then evaluated for flesh browning. Flesh browning was determined using a 6-point scale developed by Crisosto G. M. 2015 wherein a score of 1=no browning, 2=very slight browning in the pit cavity, 3=slight browning in the pit cavity and surrounding tissue, 4=moderate browning on less than 50% of the flesh, 5=severe browning on 50% to 75% of the flesh and 6=extreme browning covering most of the flesh. A flesh browning score of more than 3 was determined as a “flesh browning incident” and a score of less than 3 was determined as “healthy fruit” for efficacy purposes. […] To determine if the mixtures provided unexpected results, the observed combined efficacy (“OCE”) was divided by the expected combined efficacy (“ECE”) wherein the expected ECE is calculated by the Abbott method: wherein ECE is the expected combined efficacy and in which A and B are the quality score provided by application of the single active ingredients. If the ratio between the OCE of the mixture and the ECE of the mixture is greater than 1, then greater than expected interactions are present in the mixture. (Gisi, Synergistic Interaction of Fungicides in Mixtures, The American Phytopathological Society, 86:11, 1273-1279,1996).

[5] = test system: Cucumbers; assay: Decay evaluation of cucumbers after cold storage (Example 3); settings: for % Healthy Fruit (decay): 2-minute dip, 5 degrees Celsius 11.5 days, then room temperature, 100% minus % disease incidence
Excerpt: Cucumbers were harvested and waxed and maintained at room temperature until treatment. Cucumbers were divided into 9 equal sets. Each treatment type contained 11-13 cucumbers peaches and was repeated 3 times for a total of 33-39 peaches per treatment. For treatment, water, (S)-abscisic acid (“S-ABA”), methyl jasmonate or a mixture of S-ABA and methyl jasmonate were applied to cucumber after harvest via a 2-minute dip at the following concentrations: 1) water only; 2) 0.3 millimolar (“mM”) S-ABA; 3) 3 mM S-ABA; 4) 0.3 mM methyl jasmonate; 5) 3 mM methyl jasmonate; 6) 0.3 mM S-ABA and 0.3 mM methyl jasmonate; 7) 0.3 mM S-ABA and 3 mM methyl jasmonate; 8) 3 mM S-ABA and 0.3 mM methyl jasmonate or 9) 3 mM S-ABA and 3 mM methyl jasmonate. Each treatment includes 0.025% Latron B-1956® (available from J. R. Simplot Company) as an adjuvant. All cucumbers were subsequently dried for 30 minutes and then stored at 5 degrees Celsius for 11.5 days. Following cold storage all cucumbers were placed at room temperature for 4 days and then evaluated for electrolyte leakage and decay on each of days 1, 2,3 and 4. Decay evaluation was performed by counting the number of cucumbers displaying decay and calculating the percentage of affected cucumbers. Decay severity was evaluated using a 1-3 score system, wherein 1=low, 2=medium and 3=high. Healthy fruit was calculated by subtracting the % of disease incidence from 100%. Determination of unexpected results was calculated using the method described in Example 1. above.

Compound | Fold Change from Control (Flesh Browning Average Score) [1] | Flesh Browning Average Score [1] | Fold Change from Control (Flesh Mealiness Average Score) [2] | Flesh Mealiness Average Score [2] | Fold Change from Control (% Electrolyte Leakage) ([3]; 0.3 mM single active) | % Electrolyte Leakage ([3]; 0.3 mM single active) [%] | Fold Change from Control (% Electrolyte Leakage) ([3]; 3 mM single active) | % Electrolyte Leakage ([3]; 3 mM single active) [%] | Fold Change from Control (% Healthy Fruit) ([4]; 0.33 mM single active) | % Healthy Fruit ([4]; 0.33 mM single active) [%] | Fold Change from Control (% Healthy Fruit) ([4]; 3.3 mM single active) | % Healthy Fruit ([4]; 3.3 mM single active) [%] | Fold Change from Control (% Healthy Fruit, decay) ([5]; 0.3 mM single active) | % Healthy Fruit (decay) ([5]; 0.3 mM single active) [%] | Fold Change from Control (% Healthy Fruit, decay) ([5]; 3 mM single active) | % Healthy Fruit (decay) ([5]; 3 mM single active) [%]
CC/C=C\CC1C(=O)CCC1CC(=O)OC (centres unmarked) [MJ, methyl jasmonate] | −0.09 | 2.79 | −0.10 | 1.50 | −0.06 | 60.3 | −0.07 | 59.7 | 1.18 | 28.0 | 2.26 | 41.8 | −0.22 | 61.5 | −0.09 | 71.4
CC1=CC(=O)CC(C)(C)[C@@]1(O)/C=C/C(C)=C/C(=O)O [S-ABA, (S)-abscisic acid] | −0.016 | 3.03 | −0.006 | 1.66 | −0.05 | 61.3 | −0.05 | 61.3 | 0.35 | 17.3 | −0.33 | 8.6 | 0.05 | 82.1 | −0.29 | 55.7
